Values of other authors as cited in patent US6800435B2, “Insect sodium channels from insecticide-susceptible and insecticide-resistant house flies” (Cornell Research Foundation, Inc., priority 1996, dated 2004).

Tested on: resistant (538ge) house fly strain
Conditions: kdr trait, adult flies, Sawicki 1978

For `Clc1ccc(C(c2ccc(Cl)cc2)C(Cl)(Cl)Cl)cc1` [DDT, 1,1-bis-(4-chlorophenyl)-2,2,2-trichloroethane], the “doses required to kill approximately 50% of the treated individuals” value is given as “approximately 0.5 μg per adult fly”.
